Measured values taken from patent US12077503B2, “Substituted cyclic amides and their use as herbicides” (FMC CORPORATION, priority 2015, dated 2024).

Tests used:
Format in all cases: in vivo
[1] = tested on: ivy-leaved morning glory (Ipomoea hederacea); test: Test G Pre-Emergence Protocol; details: Ipomoea, pre-emergence, 312 h, evaluated after 13 days; for pest or weed control at 15.625 g/ha: 15.625 g ai/ha, read-out: Morning-glory, Ivy-leaved damage rating (100=total damage to plant; 0=no damage to plant); for pest or weed control at 62.5 g/ha: 62.5 g ai/ha, 100=total damage to plant, 0=no damage to plant, read-out: plant damage rating, Morningglory, Ivy-leaved; for pest or weed control at 250 g/ha: 250 g ai/ha, read-out: Morningglory, Ivy-leaved damage rating (100=total damage to plant; 0=no damage to plant)
Summary of the method: (§1)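 One day after sowing, pots are treated with a spray of test compound formulated in acetone/water 50:50 plus 0.5% Tween 20, giving 15.625, 62.5 or 250 g/ha. Evaluation on a 0–100 damage scale follows 13 days of glasshouse growth.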

[2] = tested on: barnyardgrass (Echinochloa crus-galli); test: Test G Pre-Emergence Protocol; details: Echinochloa crus-galli, pre-emergence, 312 h, evaluated after 13 days; for pest or weed control at 15.625 g/ha: 15.625 g ai/ha, read-out: Barnyard grass damage rating (100=total damage to plant; 0=no damage to plant); for pest or weed control at 62.5 g/ha: 62.5 g ai/ha, 100=total damage to plant, 0=no damage to plant, read-out: plant damage rating, Barnyardgrass; for pest or weed control at 250 g/ha: 250 g ai/ha, read-out: Barnyardgrass damage rating (100=total damage to plant; 0=no damage to plant)
Summary of the method: as §1

corn (Zea mays) [3] = test: Test G Pre-Emergence Protocol; details: Zea mays, pre-emergence, 312 h, evaluated after 13 days; for plant injury at 15.625 g/ha: 15.625 g ai/ha; for plant injury at 15.625 g/ha / plant injury at 250 g/ha: read-out: Corn damage rating (100=total damage to plant; 0=no damage to plant); for plant injury at 62.5 g/ha: 62.5 g ai/ha, 100=total damage to plant, 0=no damage to plant, read-out: plant damage rating, Corn; for plant injury at 250 g/ha: 250 g ai/ha
Summary of the method: as §1

[4] = tested on: velvetleaf (Abutilon theophrasti); test: Test G Pre-Emergence Protocol; details: Abutilon theophrasti, pre-emergence, 312 h, evaluated after 13 days; for pest or weed control at 15.625 g/ha: 15.625 g ai/ha; for pest or weed control at 15.625 g/ha / pest or weed control at 250 g/ha: read-out: Velvetleaf damage rating (100=total damage to plant; 0=no damage to plant); for pest or weed control at 62.5 g/ha: 62.5 g ai/ha, 100=total damage to plant, 0=no damage to plant, read-out: plant damage rating, Velvetleaf; for pest or weed control at 250 g/ha: 250 g ai/ha
Summary of the method: as §1

[5] = tested on: redroot pigweed (Amaranthus retroflexus); test: Test G Pre-Emergence Protocol; details: Amaranthus retroflexus, pre-emergence, 312 h, evaluated after 13 days; for pest or weed control at 15.625 g/ha: 15.625 g ai/ha; for pest or weed control at 15.625 g/ha / pest or weed control at 250 g/ha: read-out: Pigweed, Redroot damage rating (100=total damage to plant; 0=no damage to plant); for pest or weed control at 62.5 g/ha: 62.5 g ai/ha, 100=total damage to plant, 0=no damage to plant, read-out: plant damage rating, Pigweed, Redroot; for pest or weed control at 250 g/ha: 250 g ai/ha
Summary of the method: as §1

[6] = tested on: giant foxtail (Setaria faberi); test: Test G Pre-Emergence Protocol; details: Setaria faberi, pre-emergence, 312 h, evaluated after 13 days; for pest or weed control at 15.625 g/ha: 15.625 g ai/ha; for pest or weed control at 15.625 g/ha / pest or weed control at 250 g/ha: read-out: Foxtail, Giant damage rating (100=total damage to plant; 0=no damage to plant); for pest or weed control at 62.5 g/ha: 62.5 g ai/ha, 100=total damage to plant, 0=no damage to plant, read-out: plant damage rating, Foxtail, Giant; for pest or weed control at 250 g/ha: 250 g ai/ha
Summary of the method: as §1

[7] = tested on: ivy-leaved morning glory (Ipomoea hederacea); test: Test G Post-Emergence Protocol; details: Ipomoea, post-emergence, 312 h; for pest or weed control at 15.625 g/ha: 15.625 g ai/ha, evaluated after 13 days (100=total damage to plant; 0=no damage to plant), read-out: Morningglory, Ivy-leaved damage rating; for pest or weed control at 62.5 g/ha: 62.5 g ai/ha, read-out: Morningglory, Ivy-leaved damage rating (100=total damage to plant; 0=no damage to plant); for pest or weed control at 62.5 g/ha / pest or weed control at 250 g/ha: evaluated after 13 days; for pest or weed control at 250 g/ha: 250 g ai/ha, read-out: damage to plant, Morningglory, Ivy-leaved (100=total damage to plant; 0=no damage to plant)
Summary of the method: (§2)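 Sow in soil; grow 8 d (24/16 °C, 14 h light, 65% humidity); spray 15.625/62.5/250 g/ha in acetone:water 50:50 + 0.5% Tween 20; grow on, water twice daily; score damage 0–100 at 13 d.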

[8] = tested on: barnyardgrass (Echinochloa crus-galli); test: Test G Post-Emergence Protocol; details: Echinochloa crus-galli, post-emergence, 312 h; for pest or weed control at 15.625 g/ha: 15.625 g ai/ha, evaluated after 13 days (100=total damage to plant; 0=no damage to plant), read-out: Barnyardgrass damage rating; for pest or weed control at 62.5 g/ha: 62.5 g ai/ha, read-out: Barnyardgrass damage rating (100=total damage to plant; 0=no damage to plant); for pest or weed control at 62.5 g/ha / pest or weed control at 250 g/ha: evaluated after 13 days; for pest or weed control at 250 g/ha: 250 g ai/ha, read-out: damage to plant, Barnyardgrass (100=total damage to plant; 0=no damage to plant)
Summary of the method: as §2

corn (Zea mays) [9] = test: Test G Post-Emergence Protocol; details: Zea mays, post-emergence, 312 h; for plant injury at 15.625 g/ha: 15.625 g ai/ha, evaluated after 13 days (100=total damage to plant; 0=no damage to plant), read-out: Corn damage rating; for plant injury at 62.5 g/ha: 62.5 g ai/ha, read-out: Corn damage rating (100=total damage to plant; 0=no damage to plant); for plant injury at 62.5 g/ha / plant injury at 250 g/ha: evaluated after 13 days; for plant injury at 250 g/ha: 250 g ai/ha, read-out: damage to plant, Corn (100=total damage to plant; 0=no damage to plant)
Summary of the method: as §2

[10] = tested on: velvetleaf (Abutilon theophrasti); test: Test G Post-Emergence Protocol; details: Abutilon theophrasti, post-emergence, 312 h; for pest or weed control at 15.625 g/ha: 15.625 g ai/ha, evaluated after 13 days (100=total damage to plant; 0=no damage to plant), read-out: Velvetleaf damage rating; for pest or weed control at 62.5 g/ha: 62.5 g ai/ha, read-out: Velvetleaf damage rating (100=total damage to plant; 0=no damage to plant); for pest or weed control at 62.5 g/ha / pest or weed control at 250 g/ha: evaluated after 13 days; for pest or weed control at 250 g/ha: 250 g ai/ha, read-out: damage to plant, Velvetleaf (100=total damage to plant; 0=no damage to plant)
Summary of the method: as §2

[11] = tested on: redroot pigweed (Amaranthus retroflexus); test: Test G Post-Emergence Protocol; details: Amaranthus retroflexus, post-emergence, 312 h; for pest or weed control at 15.625 g/ha: 15.625 g ai/ha, evaluated after 13 days (100=total damage to plant; 0=no damage to plant), read-out: Pigweed, Redroot damage rating; for pest or weed control at 62.5 g/ha: 62.5 g ai/ha, read-out: Pigweed, Redroot damage rating (100=total damage to plant; 0=no damage to plant); for pest or weed control at 62.5 g/ha / pest or weed control at 250 g/ha: evaluated after 13 days; for pest or weed control at 250 g/ha: 250 g ai/ha, read-out: damage to plant, Pigweed, Redroot (100=total damage to plant; 0=no damage to plant)
Summary of the method: as §2

[12] = tested on: giant foxtail (Setaria faberi); test: Test G Post-Emergence Protocol; details: Setaria faberi, post-emergence, 312 h; for pest or weed control at 15.625 g/ha: 15.625 g ai/ha, evaluated after 13 days (100=total damage to plant; 0=no damage to plant), read-out: Foxtail, Giant damage rating; for pest or weed control at 62.5 g/ha: 62.5 g ai/ha, read-out: Foxtail, Giant damage rating (100=total damage to plant; 0=no damage to plant); for pest or weed control at 62.5 g/ha / pest or weed control at 250 g/ha: evaluated after 13 days; for pest or weed control at 250 g/ha: 250 g ai/ha, read-out: damage to plant, Foxtail, Giant (100=total damage to plant; 0=no damage to plant)
Summary of the method: as §2

Row | SMILES | pest or weed control at 15.625 g/ha [1] | pest or weed control at 62.5 g/ha [1] | pest or weed control at 250 g/ha [1] | pest or weed control at 15.625 g/ha [2] | pest or weed control at 62.5 g/ha [2] | pest or weed control at 250 g/ha [2] | plant injury at 15.625 g/ha (corn (Zea mays) [3]) | plant injury at 62.5 g/ha (corn (Zea mays) [3]) | plant injury at 250 g/ha (corn (Zea mays) [3]) | pest or weed control at 15.625 g/ha [4] | pest or weed control at 62.5 g/ha [4] | pest or weed control at 250 g/ha [4] | pest or weed control at 15.625 g/ha [5] | pest or weed control at 62.5 g/ha [5] | pest or weed control at 250 g/ha [5] | pest or weed control at 15.625 g/ha [6] | pest or weed control at 62.5 g/ha [6] | pest or weed control at 250 g/ha [6] | pest or weed control at 15.625 g/ha [7] | pest or weed control at 62.5 g/ha [7] | other results
1 | CN1C[C@@H](c2ccc(C(F)(F)F)cc2)[C@H](C(=O)Nc2ccc(F)c(F)c2Cl)C1=O (racemic) [Compound 1627] | 0% | 0% | 10% | 0% | 40% | 80% | 0% | 10% | 70% | 0% | 20% | 20% | 0% | 50% | 60% | 70% | 80% | 80% | 60% | 70% | pest or weed control at 250 g/ha [7]: 70%; pest or weed control at 15.625 g/ha [8]: 20%; pest or weed control at 62.5 g/ha [8]: 70%; pest or weed control at 250 g/ha [8]: 80%; plant injury at 15.625 g/ha (corn (Zea mays) [9]): 0%; plant injury at 62.5 g/ha (corn (Zea mays) [9]): 30%; plant injury at 250 g/ha (corn (Zea mays) [9]): 70%; pest or weed control at 15.625 g/ha [10]: 0%; pest or weed control at 62.5 g/ha [10]: 20%; pest or weed control at 250 g/ha [10]: 40%; pest or weed control at 15.625 g/ha [11]: 20%; pest or weed control at 62.5 g/ha [11]: 60%; pest or weed control at 250 g/ha [11]: 70%; pest or weed control at 15.625 g/ha [12]: 70%; pest or weed control at 62.5 g/ha [12]: 80%; pest or weed control at 250 g/ha [12]: 80%
2 | CN1C[C@@H](c2ccc(C(F)(F)F)cc2)[C@H](C(=O)Nc2ccnnc2)C1=O (racemic) [Compound 1518] | 0% | 0% | 0% | 0% | 0% | 0% | 0% | 0% | 0% | 0% | 0% | 0% | 0% | 0% | 0% | 0% | 0% | 0% | 0% | 0% | pest or weed control at 250 g/ha [7]: 0%; pest or weed control at 15.625 g/ha [8]: 0%; pest or weed control at 62.5 g/ha [8]: 0%; pest or weed control at 250 g/ha [8]: 0%; plant injury at 15.625 g/ha (corn (Zea mays) [9]): 0%; plant injury at 62.5 g/ha (corn (Zea mays) [9]): 0%; plant injury at 250 g/ha (corn (Zea mays) [9]): 0%; pest or weed control at 15.625 g/ha [10]: 0%; pest or weed control at 62.5 g/ha [10]: 0%; pest or weed control at 250 g/ha [10]: 0%; pest or weed control at 15.625 g/ha [11]: 0%; pest or weed control at 62.5 g/ha [11]: 0%; pest or weed control at 250 g/ha [11]: 0%; pest or weed control at 15.625 g/ha [12]: 0%; pest or weed control at 62.5 g/ha [12]: 0%; pest or weed control at 250 g/ha [12]: 0%
